Source: ChEMBL document CHEMBL1201862, “PubChem BioAssay data set” (2004)
Calls of active or inactive are those of the source.

What was measured:
Estrogen receptor = target: T1, Estrogen receptor (Homo sapiens, UniProt P03372);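 further: potency for inhibiting coactivator peptide recruitment to the receptor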
T1 sequence (P03372 whole entry): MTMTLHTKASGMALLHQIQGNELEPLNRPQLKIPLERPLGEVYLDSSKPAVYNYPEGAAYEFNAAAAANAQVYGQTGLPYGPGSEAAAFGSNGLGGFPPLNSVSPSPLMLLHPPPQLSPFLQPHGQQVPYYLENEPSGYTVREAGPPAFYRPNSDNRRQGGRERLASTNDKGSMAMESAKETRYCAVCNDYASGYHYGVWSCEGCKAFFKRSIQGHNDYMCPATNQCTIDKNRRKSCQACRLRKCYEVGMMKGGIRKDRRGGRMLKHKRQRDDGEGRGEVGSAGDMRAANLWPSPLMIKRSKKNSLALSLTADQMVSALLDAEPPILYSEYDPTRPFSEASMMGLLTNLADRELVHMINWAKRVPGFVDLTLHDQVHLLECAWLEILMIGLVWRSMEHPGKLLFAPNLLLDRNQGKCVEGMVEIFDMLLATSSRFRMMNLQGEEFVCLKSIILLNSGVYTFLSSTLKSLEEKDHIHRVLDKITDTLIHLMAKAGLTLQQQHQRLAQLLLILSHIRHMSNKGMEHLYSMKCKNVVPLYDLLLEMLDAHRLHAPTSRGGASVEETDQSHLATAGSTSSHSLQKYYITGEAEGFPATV

Prothrombin = Prothrombin (Homo sapiens, UniProt P00734); experiment: Thrombin 1536 HTS Dose Response Confirmation. [Related pubchem assays: 1046 (Thrombin 1536 HTS; hits were confirmed in this assay)]; format: functional
[1] = target: Eukaryotic translation initiation factor 4H (Homo sapiens, UniProt Q15056); experiment: eIF4H binding inhibition – biochemical, uHTS, fluorescence polarization, translation initiation inhibitor project, primary screen (AID 2012)
[2] = target: Polyadenylate-binding protein 1 (Homo sapiens, UniProt P11940); experiment: blockers of PABP interaction with poly(A) – biochemical, fluorescence polarization, […] (AID 2014)
Estrogen receptor beta = Estrogen receptor beta (Homo sapiens, UniProt Q92731);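 further: recombinant ER-beta bound to coactivator SRC1 peptide in presence of estradiol agonist; inhibitors block coactivator peptide binding and lower the FRET signal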
[3] = target: T2, Heat shock factor protein 1 (Mus musculus, UniProt P38532); experiment: decrease of HSF1-responsive luciferase luminescence – cell-based, NIH3T3, dose retest, confirmation (AID 2382); format: functional;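 further: NIH3T3 fibroblasts with HSF1-driven luciferase reporter stressed by proteasome inhibitor MG132; luminescence from HSF1-driven luciferase expression after 8 hours of MG132 stress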
T2 sequence (P38532 whole entry): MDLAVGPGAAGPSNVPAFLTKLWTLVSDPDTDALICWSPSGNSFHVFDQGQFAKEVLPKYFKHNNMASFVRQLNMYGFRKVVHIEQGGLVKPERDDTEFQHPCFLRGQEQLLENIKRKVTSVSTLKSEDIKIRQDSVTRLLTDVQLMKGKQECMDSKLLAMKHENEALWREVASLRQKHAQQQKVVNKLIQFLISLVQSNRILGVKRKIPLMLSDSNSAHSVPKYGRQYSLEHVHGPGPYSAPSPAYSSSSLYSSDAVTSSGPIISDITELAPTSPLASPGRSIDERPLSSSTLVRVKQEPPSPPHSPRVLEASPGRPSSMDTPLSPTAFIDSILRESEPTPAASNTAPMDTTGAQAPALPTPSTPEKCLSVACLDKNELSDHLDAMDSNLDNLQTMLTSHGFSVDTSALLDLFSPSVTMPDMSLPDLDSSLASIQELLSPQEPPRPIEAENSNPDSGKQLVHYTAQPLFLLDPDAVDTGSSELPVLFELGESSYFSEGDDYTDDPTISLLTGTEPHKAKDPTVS

Aminopeptidase N = target: T3, Aminopeptidase N (Plasmodium falciparum FcB1/Columbia, UniProt O96935); experiment: malaria alanyl aminopeptidase activity blockers – biochemical, fluorogenic H-Leu-NHMec substrate, 1536-well (AID 1445); design: species or system Plasmodium falciparum 3D7, 3D7
T3 sequence (O96935 whole entry): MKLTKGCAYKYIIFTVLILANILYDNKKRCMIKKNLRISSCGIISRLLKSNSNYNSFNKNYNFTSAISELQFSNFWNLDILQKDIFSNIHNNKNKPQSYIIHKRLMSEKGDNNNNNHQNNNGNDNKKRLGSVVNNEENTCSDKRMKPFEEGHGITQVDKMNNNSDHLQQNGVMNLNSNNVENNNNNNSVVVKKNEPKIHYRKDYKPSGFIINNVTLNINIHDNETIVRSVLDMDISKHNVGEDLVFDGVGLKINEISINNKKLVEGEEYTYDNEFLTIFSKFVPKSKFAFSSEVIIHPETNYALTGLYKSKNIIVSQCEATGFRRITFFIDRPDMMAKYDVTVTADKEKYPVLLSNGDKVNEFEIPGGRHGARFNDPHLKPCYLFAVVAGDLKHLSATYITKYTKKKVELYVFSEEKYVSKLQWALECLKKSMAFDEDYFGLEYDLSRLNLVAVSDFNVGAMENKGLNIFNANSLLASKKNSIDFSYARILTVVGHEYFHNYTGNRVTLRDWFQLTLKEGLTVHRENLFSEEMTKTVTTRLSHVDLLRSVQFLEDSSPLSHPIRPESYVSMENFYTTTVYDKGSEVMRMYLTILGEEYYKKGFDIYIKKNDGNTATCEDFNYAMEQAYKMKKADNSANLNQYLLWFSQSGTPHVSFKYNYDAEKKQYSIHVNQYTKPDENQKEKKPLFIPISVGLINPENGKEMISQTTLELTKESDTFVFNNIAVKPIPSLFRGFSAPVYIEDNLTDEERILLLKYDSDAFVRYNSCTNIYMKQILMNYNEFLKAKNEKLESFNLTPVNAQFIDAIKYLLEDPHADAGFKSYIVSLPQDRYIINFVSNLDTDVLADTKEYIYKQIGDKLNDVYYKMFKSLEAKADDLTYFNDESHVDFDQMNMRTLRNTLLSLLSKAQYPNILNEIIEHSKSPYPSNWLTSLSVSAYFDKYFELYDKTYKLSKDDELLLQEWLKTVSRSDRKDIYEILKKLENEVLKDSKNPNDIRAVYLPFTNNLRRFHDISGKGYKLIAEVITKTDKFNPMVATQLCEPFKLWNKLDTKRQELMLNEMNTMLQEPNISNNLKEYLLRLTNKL

cells = format: functional
[4] = target: Luciferin 4-monooxygenase (Photinus pyralis, UniProt P08659); experiment: inhibition of purified Photinus pyralis luciferase – biochemical, luminescence, dose response (AID 1891)
Large T antigen = Large T antigen (Simian virus 40, UniProt P03070); format: functional, Betapolyomavirus macacae;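 further: Confirmatory-stage PubChem screen for compounds that inhibit SV40 T antigen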
[5] = Luminescence Cell-Based Dose Confirmation HTS to Identify Inhibitors of Platelet Dense Granule Release. [Related pubchem assays: 1663 (Primary HTS), 1678 (Summary of Project)]; format: functional
[6] = THP-1 cell cytotoxicity, dose response, cytotoxicity control for non-replicating M. tuberculosis project (AID 489025); format: functional
[7] = Vero E6 cell cytotoxicity, dose response, cytotoxicity control for non-replicating M. tuberculosis project, secondary assay (AID 492998); format: functional, VeroE6; conditions: Vero C1008
Streptokinase A = target: T4, Streptokinase A (Streptococcus pyogenes serotype M1, UniProt P10520); experiment: viability-normalized secreted streptokinase activity reduction – plasminogen activation absorbance, OD405, dose response (AID 1914); format: functional, Streptococcus pyogenes M1 GAS;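 further: secreted streptokinase activity via plasminogen activation per viability signal from cell pellet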
T4 sequence (P10520 whole entry): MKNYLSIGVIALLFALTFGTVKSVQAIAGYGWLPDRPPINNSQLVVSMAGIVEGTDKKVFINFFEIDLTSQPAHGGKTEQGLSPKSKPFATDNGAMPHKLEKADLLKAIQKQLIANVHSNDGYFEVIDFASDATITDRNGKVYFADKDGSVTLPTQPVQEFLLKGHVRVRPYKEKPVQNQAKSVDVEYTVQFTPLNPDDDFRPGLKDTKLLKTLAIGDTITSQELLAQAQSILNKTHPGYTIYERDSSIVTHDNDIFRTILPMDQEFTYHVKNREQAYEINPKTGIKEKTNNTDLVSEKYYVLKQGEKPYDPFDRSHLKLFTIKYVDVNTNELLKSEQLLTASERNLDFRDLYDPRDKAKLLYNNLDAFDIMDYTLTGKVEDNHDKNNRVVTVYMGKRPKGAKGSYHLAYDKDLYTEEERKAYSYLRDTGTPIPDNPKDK

[8] = HepG2 cell cytotoxicity, dose response, cytotoxicity control for non-replicating M. tuberculosis project (AID 489018); format: functional; conditions: Mycobacterium tuberculosis
Streptococcus = experiment: GAS UMAA2166 growth inhibition – luminescence, BacTiterGlo, counter-screen for streptokinase expression inhibitor project, dose response (AID 1915); format: functional, organism-based;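 further: potency for reduction of bacterial viability or growth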
[9] = tested on: Streptococcus sp. 'group A'; experiment: Streptococcus pyogenes SK(-)GAS viability under kanamycin – luminescence, BacTiterGlo, confirmation, counter-screen for streptokinase expression inhibitor project, dose response (AID 1900); format: functional, organism-based

Polyadenylate-binding protein 1, sequence (P11940 whole entry): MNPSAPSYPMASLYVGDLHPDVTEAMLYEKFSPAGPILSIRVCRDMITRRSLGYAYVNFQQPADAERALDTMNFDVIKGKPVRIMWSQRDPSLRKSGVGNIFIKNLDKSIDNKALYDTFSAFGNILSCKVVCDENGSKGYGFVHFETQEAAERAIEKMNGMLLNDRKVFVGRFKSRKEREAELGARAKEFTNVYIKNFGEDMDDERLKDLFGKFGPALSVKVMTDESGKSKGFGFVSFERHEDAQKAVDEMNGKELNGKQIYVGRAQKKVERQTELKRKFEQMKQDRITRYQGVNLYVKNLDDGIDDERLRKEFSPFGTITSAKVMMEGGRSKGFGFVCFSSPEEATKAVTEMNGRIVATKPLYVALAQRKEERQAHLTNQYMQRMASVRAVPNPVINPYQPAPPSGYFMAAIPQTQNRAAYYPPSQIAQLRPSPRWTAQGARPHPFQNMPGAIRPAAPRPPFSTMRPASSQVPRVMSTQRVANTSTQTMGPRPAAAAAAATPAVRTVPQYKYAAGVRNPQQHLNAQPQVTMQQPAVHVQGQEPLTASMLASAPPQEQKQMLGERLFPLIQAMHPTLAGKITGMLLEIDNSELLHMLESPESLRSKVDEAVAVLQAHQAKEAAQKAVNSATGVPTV
Large T antigen, sequence (P03070 whole entry): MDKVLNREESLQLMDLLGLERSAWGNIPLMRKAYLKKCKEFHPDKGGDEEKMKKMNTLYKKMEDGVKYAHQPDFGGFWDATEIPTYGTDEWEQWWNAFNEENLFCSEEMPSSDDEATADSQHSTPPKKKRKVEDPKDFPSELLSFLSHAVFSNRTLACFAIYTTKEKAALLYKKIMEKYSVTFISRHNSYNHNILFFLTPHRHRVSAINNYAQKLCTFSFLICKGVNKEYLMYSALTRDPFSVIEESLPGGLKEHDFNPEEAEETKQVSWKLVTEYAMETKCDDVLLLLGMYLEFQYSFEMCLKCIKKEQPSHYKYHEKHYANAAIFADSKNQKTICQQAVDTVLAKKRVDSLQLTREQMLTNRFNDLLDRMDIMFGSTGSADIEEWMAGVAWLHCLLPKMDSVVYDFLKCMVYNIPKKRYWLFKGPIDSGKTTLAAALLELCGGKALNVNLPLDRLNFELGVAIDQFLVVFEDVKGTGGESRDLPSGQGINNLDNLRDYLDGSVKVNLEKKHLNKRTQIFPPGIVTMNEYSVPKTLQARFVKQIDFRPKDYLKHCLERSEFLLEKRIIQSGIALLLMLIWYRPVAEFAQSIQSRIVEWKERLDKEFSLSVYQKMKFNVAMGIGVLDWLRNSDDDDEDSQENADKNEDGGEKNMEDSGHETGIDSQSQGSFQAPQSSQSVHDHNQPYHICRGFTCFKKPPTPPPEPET
Estrogen receptor beta, sequence (Q92731 whole entry): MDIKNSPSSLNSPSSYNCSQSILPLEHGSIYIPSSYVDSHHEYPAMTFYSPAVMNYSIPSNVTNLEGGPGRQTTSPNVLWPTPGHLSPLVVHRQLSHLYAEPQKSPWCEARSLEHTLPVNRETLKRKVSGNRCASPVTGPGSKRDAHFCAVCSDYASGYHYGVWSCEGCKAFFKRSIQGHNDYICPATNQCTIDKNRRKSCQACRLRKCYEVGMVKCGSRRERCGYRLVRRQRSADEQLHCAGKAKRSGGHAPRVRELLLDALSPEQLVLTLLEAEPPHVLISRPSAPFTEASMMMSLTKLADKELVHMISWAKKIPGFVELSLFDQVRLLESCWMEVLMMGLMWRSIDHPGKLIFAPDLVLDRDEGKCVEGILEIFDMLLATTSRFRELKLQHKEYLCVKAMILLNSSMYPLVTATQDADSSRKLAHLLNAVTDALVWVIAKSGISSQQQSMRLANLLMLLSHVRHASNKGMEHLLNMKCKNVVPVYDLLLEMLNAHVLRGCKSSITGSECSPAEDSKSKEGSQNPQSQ
Luciferin 4-monooxygenase, sequence (P08659 whole entry): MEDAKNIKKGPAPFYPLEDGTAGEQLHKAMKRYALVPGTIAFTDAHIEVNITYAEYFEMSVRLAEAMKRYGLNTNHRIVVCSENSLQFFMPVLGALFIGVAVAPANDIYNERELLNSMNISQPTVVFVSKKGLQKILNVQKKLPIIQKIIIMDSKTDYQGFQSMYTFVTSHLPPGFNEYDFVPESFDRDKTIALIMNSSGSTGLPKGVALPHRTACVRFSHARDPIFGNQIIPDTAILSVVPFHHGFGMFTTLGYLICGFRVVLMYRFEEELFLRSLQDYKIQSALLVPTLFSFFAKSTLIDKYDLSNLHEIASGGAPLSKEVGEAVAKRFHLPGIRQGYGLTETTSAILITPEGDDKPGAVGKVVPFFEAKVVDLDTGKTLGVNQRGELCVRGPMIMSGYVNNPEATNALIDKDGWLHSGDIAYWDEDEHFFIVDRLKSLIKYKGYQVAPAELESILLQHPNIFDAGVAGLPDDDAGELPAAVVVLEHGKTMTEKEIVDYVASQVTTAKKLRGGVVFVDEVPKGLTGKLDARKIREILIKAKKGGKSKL

Q: With `C=CCn1c(SCC(=O)NC2CCCCC2)nnc1C(C)NC(=O)c1cccs1` (stereo not drawn) as the compound, how does the IC50 (Estrogen receptor) read?
A: > 50 µM (not active)

Q: With `Cc1nc2ccccc2c(=O)n1NC(=O)c1cc(Br)ccc1Cl` as the compound, how does the IC50 (Prothrombin) read?
A: > 50 µM (not active)

Q: What does the source list for `CCN1C(NCCc2cccnc2)=N[C@@H](c2ccccc2)C(C(=O)OC)=C1C`?
A: IC50 [1]: > 100 µM (inactive); IC50 [2]: 12 µM (active)

Q: Which IC50 (Estrogen receptor beta) does the source give for `Cc1nn(Cc2ccccc2Cl)c(C)c1C(=O)NCc1ccco1` here?
A: > 50 µM (not active)

Q: Which EC50 [3] does the source give for `Cc1occc1C(=O)Nc1cc(C(F)(F)F)ccc1Cl` here?
A: > 195 µM (not active)

Q: What about the IC50 (Prothrombin) of the same compound?
A: > 50 µM (not active)

Q: For `Cc1ccc(-c2nc(N)n(C(=O)Cc3ccccc3)n2)cc1`, which IC50 (Prothrombin) is on record?
A: 1.82 µM (active)

Q: For `O=c1[nH]c2ccc(Br)cc2c(-c2ccccc2)c1CN1CCOCC1`, which IC50 (Aminopeptidase N) is on record?
A: 54.2 µM (active)

Q: For `COc1cc(/C=C2/C(=O)NN(c3ccc(Cl)cc3)C2=O)ccc1OC(=O)c1ccco1`, which IC50 (cells) is on record?
A: 16.6 µM (active)

Q: And the EC50 [4]?
A: > 112 µM (not active)

Q: And the IC50 (Large T antigen)?
A: 21.6 µM (active)

Q: And the EC50 [5]?
A: > 112 µM (not active)

Q: With `O=c1[nH]c(SCc2ccccc2Cl)nc2n[nH]cc12` as the compound, how does the IC50 (Aminopeptidase N) read?
A: 9.3 µM (active)

Q: For `Nc1nc(-c2cccnc2)nn1C(=O)c1ccccc1Cl`, which IC50 (Prothrombin) is on record?
A: 0.0831 µM (active)

Q: Which results are given for `CC(C)C[C@H](NC(=O)C1CC(=O)N(c2ccc3c(c2)OCO3)C1)C(=O)NCc1ccco1` (stereo partly drawn)?
A: IC50 [1]: 20 µM (active); IC50 [2]: > 100 µM (inactive)

Q: For `Cc1cccc(NC2=NC(=O)/C(=C3/C(=O)N(C)c4ccccc43)S2)c1C`, which IC50 (Estrogen receptor) is on record?
A: 32.9 µM (not active)

Q: For `COc1cc(O)ccc1C(=O)CCc1ccc(O)cc1`, which IC50 (Large T antigen) is on record?
A: 13.3 µM (active)

Q: For `CCc1cc2c(=O)c(-c3nc4ccccc4n3C)coc2c(CN2CCCCC2C)c1O` (stereo not drawn), which IC50 [1] is on record?
A: 15.1 µM (active)

Q: And the IC50 [2]?
A: 57.8 µM (active)

Q: Which CC50 [6] does the source give for `C/C(=N\NC(=O)c1ccccc1O)C1C(=O)c2ccccc2C1=O` here?
A: 10.5 µM (active)

Q: What about the CC50 [7] of the same compound?
A: 4.99 µM (active)

Q: And the EC50 (Streptokinase A)?
A: > 150 µM (not active)

Q: What about the IC50 (Aminopeptidase N) of the same compound?
A: 12.8 µM (active)

Q: What about the CC50 [8] of the same compound?
A: > 20 µM (active)

Q: And the EC50 (Streptococcus)?
A: 41 µM (active)

Q: And the EC50 [9]?
A: 3.62 µM (active)
